Results published in PMC9064246 (RSC Advances, 2019).

Biological target: T1, Lactobacillus reuteri 121 inulosucrase (LrInu; InuΔ699His) (Limosilactobacillus reuteri, UniProt Q8GP32)
T1 sequence (Q8GP32 37-699 limits assumed): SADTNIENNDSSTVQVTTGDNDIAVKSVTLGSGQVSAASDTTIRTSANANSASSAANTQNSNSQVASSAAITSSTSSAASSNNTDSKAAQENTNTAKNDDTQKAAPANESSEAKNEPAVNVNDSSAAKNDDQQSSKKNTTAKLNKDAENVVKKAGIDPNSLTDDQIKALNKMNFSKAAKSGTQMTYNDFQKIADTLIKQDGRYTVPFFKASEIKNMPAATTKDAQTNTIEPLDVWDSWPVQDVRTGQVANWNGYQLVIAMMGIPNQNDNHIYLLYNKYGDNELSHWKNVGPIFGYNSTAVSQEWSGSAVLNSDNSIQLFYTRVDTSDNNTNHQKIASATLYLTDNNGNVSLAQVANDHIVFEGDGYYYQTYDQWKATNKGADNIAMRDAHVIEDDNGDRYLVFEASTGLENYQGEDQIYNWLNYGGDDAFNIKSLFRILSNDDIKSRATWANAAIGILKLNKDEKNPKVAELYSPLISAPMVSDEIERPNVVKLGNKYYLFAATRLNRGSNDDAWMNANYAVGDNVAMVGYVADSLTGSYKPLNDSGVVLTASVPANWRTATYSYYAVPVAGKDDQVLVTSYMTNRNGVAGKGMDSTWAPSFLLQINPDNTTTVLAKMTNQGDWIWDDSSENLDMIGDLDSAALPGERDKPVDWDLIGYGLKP
Experiment: FOS synthesis, TLC / HPLC / MALDI-TOF MS
Assay type: biochemical
Details: 0.5 M sucrose, 5 U/mL enzyme, 50 mM acetate pH 5.5, 30 °C, 24 h

`OC[C@H]1O[C@@](CO)(O[C@H]2O[C@H](CO)[C@@H](O)[C@H](O)[C@H]2O)[C@@H](O)[C@@H]1O` [sucrose] was tested, and the “FOS synthesis, TLC / HPLC / MALDI-TOF MS” value was “transglycosylation products of R483A, R483F, R483Y and R483W”.
